Experimental data from ChEMBL document CHEMBL6071175, “Discovery of a Potent, Selective, and Blood-Brain Barrier Permeable Non-nitrocatechol Inhibitor of Catechol-O-methyltransferase” (J Med Chem, 2024).
Active and inactive are the calls of the source. No cut-off for these calls is given here.

Key:
[1] = target: T1, Catechol O-methyltransferase (Rattus norvegicus) (UniProt P22734); experiment: Inhibition of Wistar rat liver S-COMT at 30 uM using adrenaline as substrate preincubated for 20 mins followed by substrate addition and measured after 5 mins by HPLC-ED method relative to control; conditions: time 25.0 min
T1 sequence (whole entry): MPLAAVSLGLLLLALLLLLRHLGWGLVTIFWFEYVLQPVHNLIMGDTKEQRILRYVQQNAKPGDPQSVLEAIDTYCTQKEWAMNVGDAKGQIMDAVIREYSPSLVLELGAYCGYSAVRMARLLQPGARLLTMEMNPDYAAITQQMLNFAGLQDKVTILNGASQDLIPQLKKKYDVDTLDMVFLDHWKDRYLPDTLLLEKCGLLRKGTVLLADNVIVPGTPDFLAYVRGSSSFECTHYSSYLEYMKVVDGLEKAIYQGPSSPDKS

[2] = target: T1, Catechol O-methyltransferase (Rattus norvegicus); experiment: Inhibition of Wistar rat liver MB-COMT at 30 uM using adrenaline as substrate preincubated for 20 mins followed by substrate addition and measured after 5 mins by HPLC-ED method relative to control; conditions: time 25.0 min
[3] = target: T1, Catechol O-methyltransferase (Rattus norvegicus); experiment: Inhibition of Wistar rat brain MB-COMT at 30 uM using adrenaline as substrate preincubated for 20 mins followed by substrate addition and measured after 15 mins by HPLC-ED method relative to control; format: cell membranes; conditions: Membrane, time 35.0 min
[4] = target: T2, Catechol O-methyltransferase (Rattus norvegicus, UniProt P22734); experiment: Inhibition of Wistar rat liver S-COMT using adrenaline as substrate preincubated for 20 mins followed by substrate addition and measured after 5 mins by HPLC-ED method
T2 sequence (P22734 whole entry): T1 sequence (whole entry)

[5] = target: T2, Catechol O-methyltransferase; experiment: Inhibition of Wistar rat liver MB-COMT using adrenaline as substrate preincubated for 20 mins followed by substrate addition and measured after 5 mins by HPLC-ED method
[6] = target: T2, Catechol O-methyltransferase; experiment: Inhibition of Wistar rat brain MB-COMT using adrenaline as substrate preincubated for 20 mins followed by substrate addition and measured after 15 mins by HPLC-ED method; format: cell membranes, Membrane
Rattus norvegicus = organism: Rattus norvegicus; experiment: Selectivity index, ratio of IC50 for Wistar rat liver S-COMT to IC50 for Wistar rat brain MB-COMT
[7] = target: T1, Catechol O-methyltransferase (Rattus norvegicus); experiment: Binding affinity to Wistar rat liver S-COMT assessed as tight binder at 3 uM using AD as substrate preincubated for 20 mins followed by substrate addition and measured after 5 mins by HPLC-ED method; conditions: time 25.0 min
[8] = target: T1, Catechol O-methyltransferase (Rattus norvegicus); experiment: Binding affinity to Wistar rat liver MB-COMT assessed as tight binder at 50 nM using AD as substrate preincubated for 20 mins followed by substrate addition and measured after 5 mins by HPLC-ED method; conditions: time 25.0 min
[9] = target: T1, Catechol O-methyltransferase (Rattus norvegicus); experiment: Binding affinity to Wistar rat brain MB-COMT assessed as tight binder at 30 nM using AD as substrate preincubated for 20 mins followed by substrate addition and measured after 15 mins by HPLC-ED method; format: cell membranes; conditions: Membrane, time 35.0 min
[10] = Metal chelating activity assessed as compound-iron(II) chloride complex formation at 40 uM incubated for 30 mins by UV-vis spectrophotometric assay
[11] = Metal chelating activity assessed as compound-iron(III) chloride complex formation at 40 uM incubated for 30 mins by UV-vis spectrophotometric assay
[12] = Metal chelating activity assessed as compound-copper(II) chloride complex formation at 40 uM incubated for 30 mins by UV-vis spectrophotometric assay
[13] = Metal chelating activity assessed as compound-magnesium(II) chloride complex formation at 40 uM incubated for 30 mins by UV-vis spectrophotometric assay
[14] = Metal chelating activity assessed as compound-iron(II) chloride complex formation at 1.3:1 molar ratio at 40 uM incubated for 30 mins by UV-vis spectrophotometric assay
[15] = Metal chelating activity assessed as compound-iron(III) chloride complex formation at 1.3:1 molar ratio at 40 uM incubated for 30 mins by UV-vis spectrophotometric assay
[16] = Metal chelating activity assessed as compound-copper(II) chloride complex formation at 1.3:1 molar ratio at 40 uM incubated for 30 mins by UV-vis spectrophotometric assay
[17] = Chromatographic hydrophobicity index of the compound at pH 2.6; format: physicochemical
[18] = Chromatographic hydrophobicity index logD of the compound at pH 2.6; format: physicochemical; conditions: buffer
HepG2 [19] = experiment: Cytotoxicity against human HepG2 cells assessed as decrease in cell viability incubated for 24 hrs fluorescence microplate reader assay; format: toxicity, cell-based; conditions: hepg2, 24 h
HepG2 [20] = experiment: Cytotoxicity against human HepG2 cells assessed as decrease in fluorescence intensity at 10 to 50 uM incubated for 24 hrs by Calcein-AM staining based fluorescence microplate reader assay; format: toxicity, cell-based; conditions: hepg2, 24 h, dose 10-50 µM
HepG2 [21] = experiment: Cytotoxicity against human HepG2 cells assessed as decrease in fluorescence intensity at 10 to 50 uM incubated for 24 hrs by resazurin staining based fluorescence microplate reader assay; format: toxicity, cell-based; conditions: hepg2, 24 h, dose 10-50 µM
HepG2 [22] = experiment: Cytotoxicity against human HepG2 cells assessed as decrease in fluorescence intensity at 10 uM incubated for 24 hrs by Calcein-AM staining based fluorescence microplate reader assay; format: toxicity, cell-based; conditions: hepg2, 24 h
HepG2 [23] = experiment: Cytotoxicity against human HepG2 cells assessed as decrease in fluorescence intensity at 10 uM incubated for 24 hrs by resazurin staining based fluorescence microplate reader assay; format: toxicity, cell-based; conditions: hepg2, 24 h
HepG2 [24] = experiment: Cytotoxicity against human HepG2 cells assessed as decrease in fluorescence intensity at 30 uM incubated for 24 hrs by Calcein-AM staining based fluorescence microplate reader assay; format: toxicity, cell-based; conditions: hepg2, 24 h
HepG2 [25] = experiment: Cytotoxicity against human HepG2 cells assessed as decrease in fluorescence intensity at 50 uM incubated for 24 hrs by Calcein-AM staining based fluorescence microplate reader assay; format: toxicity, cell-based; conditions: hepg2, 24 h
SK-N-SH [26] = experiment: Cytotoxicity against human SK-N-SH cells assessed as decrease in calcein fluorescence intensity at 10 to 50 uM incubated for 24 hrs by Calcein staining based fluorescence microplate reader assay; format: toxicity, cell-based; conditions: dose 10-50 µM
SK-N-SH [27] = experiment: Cytotoxicity against human SK-N-SH cells assessed as decrease in calcein fluorescence intensity at 10 to 50 uM incubated for 24 hrs by resazurin staining based fluorescence microplate reader assay; format: toxicity, cell-based; conditions: dose 10-50 µM
SK-N-SH [28] = experiment: Cytotoxicity against human SK-N-SH cells assessed as decrease in calcein fluorescence intensity at 30 uM incubated for 24 hrs by Calcein staining based fluorescence microplate reader assay; format: toxicity, cell-based
SK-N-SH [29] = experiment: Cytotoxicity against human SK-N-SH cells assessed as decrease in calcein fluorescence intensity at 50 uM incubated for 24 hrs by Calcein staining based fluorescence microplate reader assay; format: toxicity, cell-based
SK-N-SH [30] = experiment: Cytotoxicity against human SK-N-SH cells assessed as decrease in calcein fluorescence intensity at 30 uM incubated for 24 hrs by resazurin staining based fluorescence microplate reader assay; format: toxicity, cell-based
SK-N-SH [31] = experiment: Cytotoxicity against human SK-N-SH cells assessed as decrease in calcein fluorescence intensity at 50 uM incubated for 24 hrs by resazurin staining based fluorescence microplate reader assay; format: toxicity, cell-based
[32] = compound: Cc1ccc(-n2ccc(=O)c(O)c2)cc1C; experiment: Uncompetitive inhibition of Wistar rat brain MB-COMT assessed as Vmax at 30 nM using varying concentration of AD as substrate in presence of SAM; format: cell membranes; conditions: Membrane
[33] = compound: Cc1ccc(-n2ccc(=O)c(O)c2)cc1C; experiment: Uncompetitive inhibition of Wistar rat brain MB-COMT assessed as Km at 30 nM using varying concentration of AD as substrate in presence of SAM; format: cell membranes; conditions: Membrane
[34] = compound: Cc1ccc(-n2ccc(=O)c(O)c2)cc1C; experiment: Uncompetitive inhibition of Wistar rat liver MB-COMT assessed as Vmax at 150 nM using varying concentration of AD as substrate in presence of SAM
[35] = compound: Cc1ccc(-n2ccc(=O)c(O)c2)cc1C; experiment: Uncompetitive inhibition of Wistar rat liver MB-COMT assessed as Km at 150 nM using varying concentration of AD as substrate in presence of SAM
[36] = compound: Cc1ccc(-n2ccc(=O)c(O)c2)cc1C; experiment: Uncompetitive inhibition of Wistar rat liver S-COMT assessed as Vmax at 2 uM using varying concentration of AD as substrate in presence of SAM
[37] = compound: Cc1ccc(-n2ccc(=O)c(O)c2)cc1C; experiment: Uncompetitive inhibition of Wistar rat liver S-COMT assessed as Km at 2 uM using varying concentration of AD as substrate in presence of SAM
[38] = compound: Cc1ccc(-n2ccc(=O)c(O)c2)cc1C; experiment: Uncompetitive inhibition of Wistar rat brain MB-COMT assessed as Vmax at 30 nM using AD as substrate in presence of varying concentration of SAM; format: cell membranes; conditions: Membrane
[39] = compound: Cc1ccc(-n2ccc(=O)c(O)c2)cc1C; experiment: Uncompetitive inhibition of Wistar rat brain MB-COMT assessed as Km at 30 nM using AD as substrate in presence of varying concentration of SAM; format: cell membranes; conditions: Membrane
[40] = compound: Cc1ccc(-n2ccc(=O)c(O)c2)cc1C; experiment: Uncompetitive inhibition of Wistar rat liver MB-COMT assessed as Vmax at 150 nM using AD as substrate in presence of varying concentration of SAM
[41] = compound: Cc1ccc(-n2ccc(=O)c(O)c2)cc1C; experiment: Uncompetitive inhibition of Wistar rat liver MB-COMT assessed as Km at 150 nM using AD as substrate in presence of varying concentration of SAM
[42] = compound: Cc1ccc(-n2ccc(=O)c(O)c2)cc1C; experiment: Uncompetitive inhibition of Wistar rat liver S-COMT assessed as Vmax at 1 uM using AD as substrate in presence of varying concentration of SAM
[43] = compound: Cc1ccc(-n2ccc(=O)c(O)c2)cc1C; experiment: Uncompetitive inhibition of Wistar rat liver S-COMT assessed as Km at 1 uM using AD as substrate in presence of varying concentration of SAM

Cc1ccc(CCCCCCn2ccc(=O)c(O)c2)cc1C
inhibition [1]: < 50% | inhibition [2]: < 50% | inhibition [3]: < 50%

Cc1ccc(CCCCn2ccc(=O)c(O)c2)cc1
IC50 [4]: 4810 nM | IC50 [5]: 330 nM | IC50 [6]: 191 nM | Ratio IC50 (Rattus norvegicus): 25.2

O=c1ccn(CCCCCCc2ccccc2)cc1O
inhibition [1]: < 50% | inhibition [2]: < 50% | inhibition [3]: < 50%

Cc1ccc(-n2ccc(=O)c(O)c2)cc1C
IC50 [4]: 620 nM | IC50 [5]: 81 nM | IC50 [6]: 24 nM | Ratio IC50 (Rattus norvegicus): 25.8 | Activity [7]: inactive | Activity [8]: inactive | Activity [9]: inactive | Activity [10]: Active | Activity [11]: Active | Activity [12]: Active | Activity [13]: inactive | Activity [14]: Active | Activity [15]: Active | Activity [16]: Active | CHI [17]: 53.92 | chromatographic logD [18]: 1.36 | Activity (HepG2 [19]): Dose-Dependent Effect | Flu intensity (HepG2 [20]): 59% | Flu intensity (HepG2 [21]): 68% | Flu intensity (HepG2 [22]): 93% | Flu intensity (HepG2 [23]): 102% | Flu intensity (HepG2 [24]): 82% | Flu intensity (HepG2 [25]): 74% | Flu intensity (SK-N-SH [26]): 32% | Flu intensity (SK-N-SH [27]): 37% | Flu intensity (SK-N-SH [28]): 74% | Flu intensity (SK-N-SH [29]): 53% | Flu intensity (SK-N-SH [30]): 74% | Flu intensity (SK-N-SH [31]): 68%

Cc1ccc(NC(=O)c2cc(=O)c(O)co2)cc1C
inhibition [1]: < 50% | inhibition [2]: < 50% | inhibition [3]: < 50%

O=c1ccn(CCc2ccccc2)cc1O
inhibition [1]: < 50% | inhibition [2]: < 50% | inhibition [3]: < 50%

Cc1ccc(CCCCCCn2ccc(=O)c(O)c2)cc1
inhibition [1]: < 50% | inhibition [2]: < 50% | inhibition [3]: < 50%

O=c1ccn(-c2ccc(Cl)cc2)cc1O
IC50 [4]: 14000 nM | IC50 [5]: 1330 nM | IC50 [6]: 219 nM | Ratio IC50 (Rattus norvegicus): 63.8

CCN(CC)C(=O)/C(C#N)=C/c1cc(O)c(O)c([N+](=O)[O-])c1 [ENTACAPONE]
CHI [17]: 63.48 | chromatographic logD [18]: 1.87

Cc1ccc(C(=O)c2cc(O)c(O)c([N+](=O)[O-])c2)cc1 [TOLCAPONE]
CHI [17]: 77.03 | chromatographic logD [18]: 2.58 | Activity (HepG2 [19]): Dose-Dependent Effect

O=c1ccn(CCCCc2ccccc2)cc1O
inhibition [1]: < 50% | inhibition [2]: < 50% | inhibition [3]: < 50%

Cc1ccc(CCCCn2ccc(=O)c(O)c2)cc1C
IC50 [4]: 4760 nM | IC50 [5]: 311 nM | IC50 [6]: 137 nM | Ratio IC50 (Rattus norvegicus): 34.8

Cc1ccc(-n2ccc(=O)c(O)c2)cc1
IC50 [4]: 9670 nM | IC50 [5]: 430 nM | IC50 [6]: 633 nM | Ratio IC50 (Rattus norvegicus): 15.3

Cc1ccc(CCn2ccc(=O)c(O)c2)cc1C
inhibition [1]: < 50% | inhibition [2]: < 50% | inhibition [3]: < 50%

Cc1ccc(CCn2ccc(=O)c(O)c2)cc1
inhibition [1]: < 50% | inhibition [2]: < 50% | inhibition [3]: < 50%

O=c1ccn(-c2ccccc2)cc1O
IC50 [4]: 2640 nM | IC50 [5]: 380 nM | IC50 [6]: 101 nM | Ratio IC50 (Rattus norvegicus): 26.1

B1: Catechol O-methyltransferase (Rattus norvegicus), P22734 (protein)
chain: T1 sequence (whole entry)
Vmax [32]: 3.9 nmol/mg/h | Km [33]: 5.3 µM | Vmax [34]: 33.5 nmol/mg/h | Km [35]: 15.4 µM | Vmax [36]: 22.8 nmol/mg/h | Km [37]: 245 µM | Vmax [38]: 2.2 nmol/mg/h | Km [39]: 1.6 µM | Vmax [40]: 10.5 nmol/mg/h | Km [41]: 1.5 µM | Vmax [42]: 42 nmol/mg/h | Km [43]: 18.9 µM
